According to publication PMC10141580, “Cyclic Dichalcogenides Extend the Reach of Bioreductive Prodrugs to Harness Thiol/Disulfide Oxidoreductases: Applications to seco-Duocarmycins Targeting the Thioredoxin System” (ACS Central Science, 2023):
Read-outs that look alike come from different tables or passages of the source.

How the values were obtained:
HeLa-HRE cells = assay: Resazurin cytotoxicity assay, HeLa-HRE, 48 h; conditions: for IC50(HeLa)/IC50(A549): ratio HeLa vs A549
Method: (§1) We used A549 lung cancer and HeLa cervical cancer cell lines for initial screening of the prodrugs.
HeLa-HRE cells were treated with prodrugs of the
Dose -response curves were calculated from at least 27 incremental single concentrations over a
range of at least three log units.

A549 cells = assay: Resazurin cytotoxicity assay, A549, 72 h; conditions: read-out: IC50(nM): A549
Method: as §1
Fi gure S9: Cell ular resazurin-based cytotoxi ci ty as s a y.
Dose -response curves were calculated from at least 27 incremental single concentrations over a range
of at least three log units. Individual experiments with annotated experiment numbers are shown for each prodrug

Balb/c mice [1] = assay: Single-dose toxicity study; format: in vivo; conditions: week following treatment
Method: To test if low prodrug activation could enable in vivo use, we performed dosing and toxicity studies in Balb/c mice, comparing the toxicity and the tolerated dosing of low-reducible SS60-CBI-AZI or substantially reducible SeS60-CBI-AZI and to those of non-reducible carbamate O56-CBI-AZI. Single-dose toxicity was studied over the range 0.1–10 mg/kg.
Methods for in vivo animal studies
(§2) All in vivo studies were conducted as contract research together with React ionBiology Eur ope G mbH (Freiburg,
(§3) Germany), EPO – Experimental Pharmacology & Oncology GmbH (Berlin, Germany); Bient a/ Enam ine Lt d. (Kyiv,
(§4) Ukraine) and Leit at – Managing Technologies (Barcelona, Spain), adhering to the respective animal welfare
(§5) Mice were kept in individually ventilated cages at constant temperature (22±2 °C, air-conditioned) and humidity (45
(§6) – 65%), under optimum hygienic conditions with 10 – 15 air changes per hour. A cycle of 12 h artificial fluorescent
(§7) light ning and 12 h darkness was applied , and animal behavior was monitored daily throughout the studies. The
(§8) animals received food and water ad libit um.
(§9) To evaluate toxicity of selected compounds, dose level selection studies within dose range from 0.1 mg/kg to
10 mg/kg were performed by intravenous administration into Balb /c mice. […]
were monitored after each drug administration and three times per week for 21 consecutive days after the first […]

[2] = system: NCI-60 standardized human tumor cell line panel; assay: cells; format: cell-based; conditions: AZI sheet, read-out: GI50
4T1 murine breast cancer = assay: 4T1 orthotopic breast cancer efficacy study; format: in vivo; conditions: 4T1 in Balb/c mice; CBI prodrugs 3 mg/kg
Text: We then moved to in vivo anticancer efficacy trials of these prodrugs. […] As one model we chose the syngeneic murine breast cancer 4T1, implanted orthotopically (at the native tissue site) into the fat pad of immunocompetent Balb/c mice (i.e., offering a realistic immune system and tumor microenvironment). This model gives rapid, aggressive tumor growth.[52] As a second model, we chose to xenograft human BxPC-3 pancreatic adenocarcinoma cells into immunodeficient hosts. This is a slower-growing model, with low metastasis, that can be more resistant to traditional antimitotic therapy.[53],[54] Mice were implanted, randomized once tumors reached 100–150 mm^3 volume, and treated once or twice weekly with prodrug or control compounds typically at 3 mg/kg (8–12 animals per condition, Figure 10a). Tumors were measured by caliper during the assay and weighed at termination.
7. 2. in vivo efficacy mouse studies
4T1 efficacy study BxPC-3 efficacy study a Absolute tumour volumes b Absolute tumour volumes […]
days after tumor implantation days after tumor implantation c Relative tumour volumes d Relative tumour volumes […]
e RTV! fi"al day of followu# f ex viv tumour weights g RTV! fi"al day of followu# h ex viv tumour weights (. mice remain in all *roups) (for animals left at day 31)(all *roups have statistical power)(day "2/ all animals left) […]
vehicle(1x)(1x)(1x) (2x)(2x) […]
P-##"0-#$%-&'%P-!!"0-#$%-&'%P-!!"0-#$%-()%P-!!"0-#$%-&'% %rinotecan %rinotecan P-##"0-#$%-&'%P-!!"0-#$%-()%P-!!"0-#$%-&'%P-!!"0-#$%-&'% P-!!"0-#$%-&'% P-!!"0-#$%-&'% […]
i Body weights $ Body weights […]
implant in Balb/c mice, 8 mice per group; (b, d,g,h,j): BxPC-3 subcutaneous xenograft in NMRi mice, 8 mice per […]
treatment (m e d ia n); (e,g) in vivo caliper measurement of relative tum or volumes at final day of followup [last day when all mice in all groups remain in the study] […]
tumor weights at termination of study (only mice not terminated on ethical grounds before the indicated days were harvested); (i,j) Bodyweights (means).
(BxPC-3 study); dotted vertical lines indicate days of [potential] treatment.

[3] = system: Balb/c mice with 4T1 tumors; assay: 4T1-bearing tolerability study; conditions: 10 mg/kg
Text: Finally, another large study intended for antitumor efficacy also had to be examined only in terms of tolerability.
(a,c, e, g, h): BxPC-3 subcutaneous xenograft in NMRi mice, 10 mice per group; ( b, d, f,i ,j): 4T1 murine breast cancer syngeneic orthotopic implant in Balb/c mice,
(a,b) Bodyweights (means); (c, d) absolute tumor volumes (medians); (e,f) tumor volumes relative to individual volumes at start of treatment (medians); (g,h,i ,j) absolute and relative tumor volumes at final day of study (datapoints with means and 95% confidence interval). All tumor measurements are in vivo caliper measurements. Dotted vertical lines indicate days of treatment. All CBI groups dosed at 3 mg/kg i. v., ca . 1 0 0 µL injection volume in vehicle (10:90 DMSO:saline).

[4] = Cell-free HPLC reduction assay (GSH or TCEP challenge); conditions: 5 mM GSH (50 equiv), 24 h
Text: These performance features had not been tested with naphthols, so we used HPLC to test them and show their reduction-based activation sequence (Figure 2c and Figures S4–S6).
In brief, treatment with the quantitative reductant TCEP triggered a reaction cascade matching the activation sequence we expected (Figure 2c): dichalcogenides are reduced to dichalcogenols that cyclize, giving the naphthol cargos (plus thiol trigger byproduct) that evolve to the activated cyclopropanes (Figure 5).
The mobile phase consists of eluent A: water (analytical
grade, 0.1% formic acid) and eluent B: MeCN (analytical grade, 0.1% formic acid).
using a gradient of 10% B t o 90% B over 10 min.
Reduction assay using TCEP and GSH
tris(2-carboxyethyl)phospine) (TCEP, 5 mM in TE-bu f f e r ) , or reduced glut at hione (GSH, 50 mM in TE-buf f er) or
else blank TE-buffer. Final concentrations: Prodrug (0.1 mM) , TCEP ( 0. 5 mM) , G SH ( 5 mM). The blank sample
was measured after 10 min (“pure”) and 24 h (“O H-“) to control for basic hydrolysis. The GSH sample was
measured after 24 h to control for monothiol-based reductive release. The TCEP sample was measured at several […]
extracted for each of the intermediate species and final r elease products. Peak areas were calculated relative to
the sum of all peak areas at 320 nm to quantify individual species at each timepoints. […]

Balb/c mice [5] = assay: Moderate repeated dosing tolerability study; format: in vivo
Method: Next, a moderate repeated dosing study in Balb/c mice (3 animals per group) tested the importance of solubilizing the prodrugs.
Methods for in vivo animal studies
as §2, §3, §4, §5, §6, §7, §8, §9
10 mg/kg were performed by intravenous administration into Balb /c mice. Each dose for each tested compound
was administered in one mouse.
changes and clinical signs of gross toxicity three tim es per week for 21 consecutive days of post-dosing period.
After the first week of observation without adverse events, two doses for each test compound were selected as
tolerated. These two doses were tested in two additional mice for confirmation of toler ability. Additional animals
consecutive days of post-dosing period. Toxicity of repeated administrations was tested wit h t hr ee repeat ed pr e-
selected doses at a dosing interval of 7 days. Mortality, body weight changes, and clinical signs of gross toxicity
were monitored after each drug administration and three times per week for 21 consecutive days after the first
compound administration. Bleed ing with subsequent hematological tests, clinical chemistry parameters analysis
(ALT, AST, ALP, LDH, creatine kinase, creatinine, urea, cholesterol, and triglycerides), and necropsy with
macroscopic inspection were performed on the terminal day of the repeated dosing-regime.
To test tolerability of selected compounds in vivo, female BALB/c mice were randomized by weight into seven
groups of t hree animals.

mouse = assay: Tolerability for repeated dose administration in vivo (summary); conditions: repeated dose administration
[6] = In vivo plasma pharmacokinetics; conditions: Balb/c mice, i.v. 5 mg/kg
Method: We first examined the in vivo pharmacokinetics of representative compound SS60-CBI-AZI in Balb/c mice after i.v. administration at 5 mg/kg (3 animals per time point, 4 time points from 5 to 90 min post injection).
as §5, §6, §7, §8
Pharm acokinetics o f SS60-CBI-AZI
Following single dose intravenous administration, levels of SS60-CBI-AZI in blood plasm a over t im e wer e
det ermined by HPLC-MS/MS. Treatm ent gr oups wer e three Balb/c mice (randomly assigned ) per t ime point (t otal:
Blood collection was performed from the orbital sinus in
microtainers containing K 2EDTA. All samples were immediately processed, flash -frozen and stored at -70 °C unt il
400 ng/mL in et hanol). After mixing by pipetting and centrifuging for 4 min at 6000 rpm, 2 μL of each supernatant
was injected into LC-MS/MS (Shimadzu LC: 2 isocratic pumps LC-10ADvp, autosampler SIL-20AC, sub-controller
FCV-14AH, degasser DGU-14 A; AB Sciex MS: API 3000 ( tr iple-quadrupole), ESI). The data acquisition and system […]

[7] = read-out: IC50(nM): HeLa, HeLa, 48 h

O=C(c1cc2cc(OCCCN3CCC3)ccc2[nH]1)N1C[C@@H](CCl)c2c1cc(OCc1ccccc1)c1ccccc21 [OBn-CBI-AZI]
IC50 (HeLa-HRE cells; initial screening, A549 and HeLa cell lines): > 1000 nM | IC50(HeLa)/IC50(A549) (HeLa-HRE cells): 1.8 | IC50 (HeLa-HRE cells; [7]): 750 nM | IC50 (A549 cells): 420 nM | outcome at 10 mg/kg single dose (Balb/c mice [1]): not lethal | GI50 ([2]; 786-0): 270 nM | GI50 ([2]; A498): 380 nM | GI50 ([2]; A549/ATCC): 160 nM | GI50 ([2]; ACHN): 35 nM | GI50 ([2]; CAKI-1): 190 nM | GI50 ([2]; CCRF-CEM): 410 nM | GI50 ([2]; COLO 205): 280 nM | GI50 ([2]; EKVX): 370 nM | GI50 ([2]; HCC-2998): 320 nM | GI50 ([2]; HCT-15): 130 nM | GI50 ([2]; HCT-116): 640 nM | GI50 ([2]; HL-60(TB)): 440 nM | GI50 ([2]; HOP-62): 140 nM | GI50 ([2]; HOP-92): 500 nM | GI50 ([2]; HT29): 270 nM | GI50 ([2]; IGROV1): 190 nM | GI50 ([2]; K-562): 250 nM | GI50 ([2]; KM12): 810 nM | GI50 ([2]; LOX IMVI): 56 nM | GI50 ([2]; M14): 210 nM | GI50 ([2]; MALME-3M): 280 nM | GI50 ([2]; MDA-MB-231): 3070 nM | GI50 ([2]; MDA-MB-435): 330 nM | GI50 ([2]; MOLT-4): 270 nM | GI50 ([2]; NCI-H23): 73 nM | GI50 ([2]; NCI-H226): 210 nM | GI50 ([2]; NCI-H460): 17 nM | GI50 ([2]; NCI-H522): 380 nM | GI50 ([2]; OVCAR-3): 500 nM | GI50 ([2]; OVCAR-4): 540 nM | GI50 ([2]; OVCAR-5): 340 nM | GI50 ([2]; OVCAR-8): 240 nM | GI50 ([2]; RPMI-8226): 500 nM | GI50 ([2]; RXF 393): 230 nM | GI50 ([2]; SF-268): 330 nM | GI50 ([2]; SF-295): 46 nM | GI50 ([2]; SF-539): 290 nM | GI50 ([2]; SK-MEL-2): 370 nM | GI50 ([2]; SK-MEL-5): 270 nM | GI50 ([2]; SK-MEL-28): 330 nM | GI50 ([2]; SK-OV-3): 450 nM | GI50 ([2]; SN12C): 360 nM | GI50 ([2]; SNB-19): 330 nM | GI50 ([2]; SR): 44 nM | GI50 ([2]; SW-620): 260 nM | GI50 ([2]; TK-10): 560 nM | GI50 ([2]; U251): 61 nM | GI50 ([2]; UACC-62): 62 nM | GI50 ([2]; UACC-257): 390 nM | GI50 ([2]; UO-31): 260 nM

CCc1c2c(nc3ccc(OC(=O)N4CCC(N5CCCCC5)CC4)cc13)-c1cc3c(c(=O)n1C2)COC(=O)[C@]3(O)CC [irinotecan, reference compound]
effect on tumor growth (4T1 murine breast cancer): expected tumor-slowing effect | effect on tumor growth [3]: failed to slow tumor growth

CN1CCN(C(=O)Oc2cc3c(c4ccccc24)C(CCl)CN3C(=O)c2cc3cc(OCCCN4CCC4)ccc3[nH]2)C2CSSCC21 (mixture of isomers) [Me-SS66C-CBI-AZI]
IC50(HeLa)/IC50(A549) (HeLa-HRE cells): 33 | IC50 (HeLa-HRE cells; [7]): 400 nM | IC50 (A549 cells): 12 nM | release/reduction on GSH challenge [4]: no disulfide reduction/prodrug release was indicated | GI50 ([2]; 786-0): 8.8 nM | GI50 ([2]; A498): 26 nM | GI50 ([2]; A549/ATCC): 5 nM | GI50 ([2]; ACHN): 2 nM | GI50 ([2]; BT-549): 54 nM | GI50 ([2]; CAKI-1): 8.2 nM | GI50 ([2]; CCRF-CEM): 18 nM | GI50 ([2]; COLO 205): 22 nM | GI50 ([2]; DU-145): 5.3 nM | GI50 ([2]; EKVX): 27 nM | GI50 ([2]; HCC-2998): 22 nM | GI50 ([2]; HCT-15): 11 nM | GI50 ([2]; HCT-116): 46 nM | GI50 ([2]; HL-60(TB)): 29 nM | GI50 ([2]; HOP-62): 9.6 nM | GI50 ([2]; HOP-92): 53 nM | GI50 ([2]; HT29): 15 nM | GI50 ([2]; IGROV1): 6.6 nM | GI50 ([2]; K-562): 17 nM | GI50 ([2]; KM12): 90 nM | GI50 ([2]; LOX IMVI): 3.2 nM | GI50 ([2]; M14): 14 nM | GI50 ([2]; MALME-3M): 19 nM | GI50 ([2]; MCF7): 1.5 nM | GI50 ([2]; MDA-MB-231): 37.8 nM | GI50 ([2]; MDA-MB-435): 25 nM | GI50 ([2]; MDA-MB-468): 5.3 nM | GI50 ([2]; MOLT-4): 14 nM | GI50 ([2]; NCI-H23): 4.3 nM | GI50 ([2]; NCI-H226): 6.9 nM | GI50 ([2]; NCI-H460): 1.6 nM | GI50 ([2]; NCI-H522): 28 nM | GI50 ([2]; OVCAR-3): 51 nM | GI50 ([2]; OVCAR-4): 74 nM | GI50 ([2]; OVCAR-5): 23 nM | GI50 ([2]; OVCAR-8): 12 nM | GI50 ([2]; PC-3): 34 nM | GI50 ([2]; RPMI-8226): 35 nM | GI50 ([2]; RXF 393): 4.2 nM | GI50 ([2]; SF-268): 20 nM | GI50 ([2]; SF-295): 2.1 nM | GI50 ([2]; SF-539): 22 nM | GI50 ([2]; SK-MEL-2): 31 nM | GI50 ([2]; SK-MEL-5): 19 nM | GI50 ([2]; SK-MEL-28): 22 nM | GI50 ([2]; SK-OV-3): 30 nM | GI50 ([2]; SN12C): 12 nM | GI50 ([2]; SNB-19): 18 nM | GI50 ([2]; SR): 2.7 nM | GI50 ([2]; SW-620): 18 nM | GI50 ([2]; T-47D): 15 nM | GI50 ([2]; TK-10): 36 nM | GI50 ([2]; U251): 3.6 nM | GI50 ([2]; UACC-62): 4.2 nM | GI50 ([2]; UACC-257): 34 nM | GI50 ([2]; UO-31): 12 nM

CN(C(=O)Oc1cc2c(c3ccccc13)[C@H](CCl)CN2C(=O)c1cc2cc(OCCCN3CCC3)ccc2[nH]1)[C@H]1CCSSC1 [SS60-CBI-AZI]
outcome of repeated dosing at 3 mg/kg (Balb/c mice [5]; once weekly): significant loss of body weight | outcome of repeated dosing at 1 mg/kg (Balb/c mice [5]; treated twice a week): tolerated | IC50 (HeLa-HRE cells; Homo sapiens, HeLa, 48 h, read-out: IC50(nM): HeLa): 96 nM | IC50(HeLa)/IC50(A549) (HeLa-HRE cells): 0.8 | IC50 (A549 cells; Homo sapiens): 120 nM | remarks (mouse): adverse effects | released cargo in plasma [6]: no released HO-CBI-AZI, or activated cyclopropane, or adducts, were detected | half-life ([6]; mouse, plasma, iv, HPLC-MS/MS): ~20 min
